In patent US20080195024A1, “Treating Disorders Associated with Inflammation” (priority 2005, published 2008):

Key:
casein = experiment: Protease activity measurement (Enzcheck casein kit) of proteases, homogenates and luminal fluids; assay type: biochemical; details: mixed with equal volume of PBS; fluorescence after 90 minutes; mean±SD, N=6
Method: In vitro studies of intestinal wall homogenate digested with proteases—enzymatic digestion of wall homogenates: Wall homogenates were rapidly thawed at 37° C. and mixed with equal volumes of PBS, TPCK-treated trypsin, TLCK-treated chymotrypsin, or elastase. Controls of the proteases alone also were created by mixing them with equal volumes of PBS. Since lower grades of trypsin are often contaminated with the activity of chymotrypsin and vice versa, trypsin pretreated with TPCK (a specific chymotrypsin inhibitor) and chymotrypsin pretreated with TLCK (a trypsin inhibitor) were used to reduce any effects of cross contamination. Before mixing with wall homogenate, the enzymes were reconstituted in PBS at the following concentrations: 1 mg/ml for TPCK-treated trypsin, 1 mg/ml for TLCK-treated chymotrypsin, and 0.5 mg/ml for elastase.
The groups were treated as follows: the luminal fluids from 5 animals were incubated separately (37° C., 3 hours) and aliquots of each sample were collected. One aliquot was filtered through 4 glass fiber pre-filters in series. The unfiltered and filtered aliquots were mixed with equal volumes of PBS (to generate the Lumen and Filtered Lumen groups, respectively) or with wall homogenate from the same animal (to generate the Wall+Lumen and Wall+Filtered Lumen groups, respectively). The Wall group was prepared by mixing wall homogenates with equal volumes of PBS. All samples were incubated at 37° C. for 3 additional hours, aliquotted, and frozen (−70° C.) for later evaluation of neutrophil cytotoxicity and protease activity.

human neutrophils = experiment: Flow cytometric analysis of neutrophil cytotoxicity (PI cell death, forward scatter); assay type: cell-based; details: for increase in forward scatter: pancreatic proteases alone; for cytotoxicity to neutrophils: pure proteases at the tested concentrations
Method: Cytotoxicity measurement—flow cytometric analysis of neutrophil cytotoxicity: For measurements of cell death and forward scatter (a measure of cell “size”) by flow cytometry, 100 μl of sample were mixed with 100 μl of cells (10^6 cells/ml final) and after selected periods of incubation, a life/death indicator (200 μl of 2 μM propidium iodide, PI) was added. Within seconds of PI addition, the sample was tested in a flow cytometer (Beckton-Dickson FACScan; Franklin Lakes N.J.).
Flow cytometric analysis of neutrophils was carried out by plotting forward scatter (FSC) on the ordinate and FL-2 (PI fluorescence) on the abscissa. […] Two regions on the scatter plot were gated. Region 1 (R1) was for live cells, and was constructed to monitor an increase in cell size that results from bleb formation and also to observe the small uptake of PI that occur may prior to total membrane failure. […] Ten thousand cells were evaluated per sample. Cell death was reported as the percentage of total cells located in R2, i.e., Death=100%*(# in R2)/(# in R1+# in R2).

[1] = system: digestive enzymes in luminal contents; experiment: Protease activity of wall homogenates digested with filtered luminal fluid with or without protease inhibitors; assay type: biochemical, rat; details: filtered luminal fluid plus inhibitor incubated with wall homogenates 3 hours at 37° C.; final 1 mM PMSF, 1.25 mg/ml (2.31 mM) ANGD
Description: (§1) To determine if enzyme inhibition could prevent the generation of cytotoxic mediators from luminal contents, luminal fluids were pre-filtered through three glass fiber filters in series, a procedure that reduces cytotoxic activity, allowing the experiments to be focused solely on new cytotoxic mediator formation. […] The precipitate was separated following the digestion period and the supernatant collected. All samples were then aliquotted and frozen for later measurements of protease activity and neutrophil cytotoxicity.

[2] = Solubility of ANGD in luminal fluid; assay type: physicochemical; details: with or without glucose; white precipitate formed
Description: as §1

[3] = wall homogenates digested with filtered luminal fluid with inhibitor, exposure 20, 30 or 40 minutes

solubility in the luminal fluid [2]	Compound	protease activity (casein)	increase in forward scatter (human neutrophils)	cytotoxicity to neutrophils (human neutrophils)	protease activity inhibited in the digested homogenates [1]	neutrophil cell death (human neutrophils; [3])	neutrophil forward scatter (human neutrophils; [3])	cytotoxicity compared to samples without PMSF (human neutrophils; PMSF added after digestion of wall homogenate by chymotrypsin, not statistically significant)	neutrophil cell death (human neutrophils; PMSF added prior to digestion of wall homogenate by chymotrypsin)
–	trypsin	300±33 RFU	no significant effect	not cytotoxic	–	–	–	–	–
not completely soluble	CS(=O)(=O)O.CS(=O)(=O)O.N=C(N)Nc1ccc(C(=O)Oc2ccc3cc(C(=N)N)ccc3c2)cc1 [ANGD, 6-amidino-2-naphthyl p-guanidinobenzoate dimethanesulfonate]	–	–	–	less effective	significantly decrease the cell death compared to controls	prevented the large increase in forward scatter	–	–
–	elastase: pancreatic elastase from Worthington Biochemicals, 0.5 mg/ml in PBS	2389±300 RFU	greatest increase	not cytotoxic	–	–	–	–	–
–	chymotrypsin	2371±230 RFU	significantly elevated at 90 minutes	not cytotoxic	–	–	–	–	–
–	O=S(=O)(F)Cc1ccccc1 [PMSF, phenylmethylsulfonyl fluoride]	–	–	–	approximately half	Neither PMSF nor ANGD alone entirely prevented cell death	–	slightly increased cytotoxicity	no cell death
